Assay results as given in patent US20220331357A1, “COMPOSITIONS AND METHODS FOR THE PREVENTION AND TREATMENT OF PANCREATITIS” (Duke University, priority 2019, published 2022).
Read-outs that look alike come from different tables or passages of the source.

Legend:
Piezol = biological target: T1, Piezol (Mus musculus, UniProt E2JF22); test: Yoda1 activation of Piezol in pancreatic acinar cells; format: cell-based, mice
T1 construct: endogenous in cells; host or cells: isolated pancreatic acini / acinar cells (primary, mouse)
T1 sequence (E2JF22 whole entry): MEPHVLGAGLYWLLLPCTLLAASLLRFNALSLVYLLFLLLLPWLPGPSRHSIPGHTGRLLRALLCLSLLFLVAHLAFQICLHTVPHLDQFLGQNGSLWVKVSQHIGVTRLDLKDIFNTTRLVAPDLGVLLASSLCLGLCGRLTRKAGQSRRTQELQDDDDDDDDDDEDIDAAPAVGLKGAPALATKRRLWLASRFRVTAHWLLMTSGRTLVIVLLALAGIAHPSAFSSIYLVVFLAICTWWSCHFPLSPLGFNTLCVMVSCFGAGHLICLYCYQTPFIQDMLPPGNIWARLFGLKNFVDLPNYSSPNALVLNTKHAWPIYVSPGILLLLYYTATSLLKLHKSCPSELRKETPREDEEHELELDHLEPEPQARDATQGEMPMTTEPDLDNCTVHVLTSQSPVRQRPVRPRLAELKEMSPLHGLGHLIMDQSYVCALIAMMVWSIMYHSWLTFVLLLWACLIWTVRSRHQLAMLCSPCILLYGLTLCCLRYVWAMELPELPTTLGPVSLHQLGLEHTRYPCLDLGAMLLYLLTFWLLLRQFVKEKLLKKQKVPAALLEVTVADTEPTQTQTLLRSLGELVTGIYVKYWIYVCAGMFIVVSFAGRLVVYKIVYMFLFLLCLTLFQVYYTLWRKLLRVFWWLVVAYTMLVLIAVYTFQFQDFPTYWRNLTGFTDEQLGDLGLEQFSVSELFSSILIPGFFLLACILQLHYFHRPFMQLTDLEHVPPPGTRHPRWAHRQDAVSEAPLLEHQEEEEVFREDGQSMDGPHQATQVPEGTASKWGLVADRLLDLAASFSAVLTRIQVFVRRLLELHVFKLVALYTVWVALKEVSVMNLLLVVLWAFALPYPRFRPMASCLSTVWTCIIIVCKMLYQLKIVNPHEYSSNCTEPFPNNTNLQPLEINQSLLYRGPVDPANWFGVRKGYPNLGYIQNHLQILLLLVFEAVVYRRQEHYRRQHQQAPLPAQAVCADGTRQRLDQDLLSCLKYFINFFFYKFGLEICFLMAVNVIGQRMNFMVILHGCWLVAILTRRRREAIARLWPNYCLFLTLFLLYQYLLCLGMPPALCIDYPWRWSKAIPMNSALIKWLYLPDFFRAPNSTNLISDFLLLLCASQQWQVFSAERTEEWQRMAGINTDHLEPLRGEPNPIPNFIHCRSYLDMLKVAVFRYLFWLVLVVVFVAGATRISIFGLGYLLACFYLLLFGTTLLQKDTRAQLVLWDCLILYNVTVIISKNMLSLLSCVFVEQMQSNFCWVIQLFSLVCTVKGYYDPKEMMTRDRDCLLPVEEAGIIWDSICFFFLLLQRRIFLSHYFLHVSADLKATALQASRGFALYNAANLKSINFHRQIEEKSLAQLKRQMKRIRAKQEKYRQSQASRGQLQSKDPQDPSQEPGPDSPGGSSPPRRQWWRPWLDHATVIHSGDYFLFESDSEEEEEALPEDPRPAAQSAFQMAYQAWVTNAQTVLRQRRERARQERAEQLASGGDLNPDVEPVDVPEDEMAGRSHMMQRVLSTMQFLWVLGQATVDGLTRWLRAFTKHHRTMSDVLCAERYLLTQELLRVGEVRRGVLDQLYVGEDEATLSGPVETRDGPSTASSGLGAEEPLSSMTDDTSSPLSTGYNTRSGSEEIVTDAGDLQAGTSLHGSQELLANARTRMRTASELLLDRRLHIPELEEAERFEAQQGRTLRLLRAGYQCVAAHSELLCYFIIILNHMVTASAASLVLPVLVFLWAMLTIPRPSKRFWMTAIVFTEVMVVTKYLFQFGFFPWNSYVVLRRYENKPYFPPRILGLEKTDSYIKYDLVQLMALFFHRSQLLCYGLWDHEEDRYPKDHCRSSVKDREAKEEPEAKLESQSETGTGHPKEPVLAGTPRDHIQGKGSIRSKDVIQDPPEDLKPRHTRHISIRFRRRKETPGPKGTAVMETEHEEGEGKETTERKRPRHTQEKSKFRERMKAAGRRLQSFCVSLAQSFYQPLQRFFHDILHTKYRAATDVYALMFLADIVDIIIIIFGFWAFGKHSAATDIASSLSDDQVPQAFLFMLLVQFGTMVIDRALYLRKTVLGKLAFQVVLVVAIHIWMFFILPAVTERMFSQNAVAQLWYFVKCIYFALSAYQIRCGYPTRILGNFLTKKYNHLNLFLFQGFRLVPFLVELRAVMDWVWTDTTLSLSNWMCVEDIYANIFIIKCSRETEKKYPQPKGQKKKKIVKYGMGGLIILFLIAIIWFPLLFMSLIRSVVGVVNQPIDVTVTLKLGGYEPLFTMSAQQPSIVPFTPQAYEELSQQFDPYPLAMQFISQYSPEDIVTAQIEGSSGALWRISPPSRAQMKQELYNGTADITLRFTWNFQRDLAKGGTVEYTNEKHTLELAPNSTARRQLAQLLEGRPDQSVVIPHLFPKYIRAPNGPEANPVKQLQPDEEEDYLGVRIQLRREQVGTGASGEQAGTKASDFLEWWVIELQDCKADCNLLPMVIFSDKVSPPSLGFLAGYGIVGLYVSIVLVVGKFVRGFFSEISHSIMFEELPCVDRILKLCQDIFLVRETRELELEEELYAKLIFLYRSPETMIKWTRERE
Method: Pathological activation of Piezol leads to [Ca^2+]i overload, mitochondrial dysfunction, trypsinogen activation, and acinar cell necrosis. Moreover, Piezol activation explains how elevation of intrapancreatic duct pressure (e.g., ERCP or gallstone impaction) causes pancreatitis. Piezol can be activated by mechanical pushing or shear stress. A method for studying the effects of shear stress on isolated pancreatic acini in vitro was developed. Pancreatic acini are cultured on Matrigel and placed into a fluid flow chamber. Cells can be loaded with either the calcium sensitive dye, Calcium 6-QF (Molecular Devices), or the active trypsin enzyme substrate BZiPAR [rhodamine 110, bis(CBZ-L-isoleucyl-L-prolyl-L-arginine amide)] (10 μM) and imaged using a fluorescence microscope while fluid flow is regulated to control the level of shear stress.
As shown in FIG. 11(A)-(C), subjecting acinar cells to fluid shear stress at 12 dyne/cm^2 produced a prolonged increase in [Ca^2+]i similar to that seen with supramaximal, pathological concentrations of caerulein and was sufficient to cause trypsin activation. Shear pressure also led to mitochondrial membrane depolarization indicating mitochondrial dysfunction. These effects are specific for Piezol since changes were not observed in Piezol1^aci knockout mice. Yoda1 is a selective agonist for Piezol and can be used to simulate pressure by chemically activating Piezol. […] In order to determine if phosphate might protect against pressure-induced pancreatitis, we observed that phosphate supplementation reduced Yoda1-stimulated elevations in [Ca^2+]i and LDH release.

[1] = tested on: isolated mouse pancreatic acini; test: Caerulein-induced injury in isolated pancreatic acini; format: cell-based; conditions: for caerulein-induced damage (release of trypsin, IL-1β and LDH): 1, 5 or 10 mM sodium phosphate, pH 7.4, caerulein 10 nM for 30 minutes
Text: To evaluate the effects of phosphate on acinar cell function pancreatic acini in vitro were examined High concentrations of caerulein in vitro induce pancreatic injury similar to the effects observed in vivo and this method has been used to study direct effects on pancreatic acinar cells. Specifically, caerulein causes pancreatitis by hyperstimulating the acinar cells through the CCK1 receptor. In isolated pancreatic acini, caerulein causes trypsin activation, generation of the proinflammatory cytokine cytosolic […], and cell necrosis as manifest by LDH release. Each of these pathological results is seen with caerulein hyperstimulation in vivo.
It was observed that phosphate supplementation, independent of its buffering effects, reduced caerulein-induced LDH release, a marker of cell damage (FIG. 4). In addition, it was sought to determine if lack of ATP contributes to pancreatitis and whether the protective effects of phosphate are through restoration of intracellular ATP levels. […] Isolated mouse pancreatic acini were treated with caerulein in buffer containing Na2HPO4 concentrations of 1-10 mM. Supernatant LDH was measured by commercial LDH assay. Cytosolic ATP levels were measured using a commercially available fluorometric assay. *P<0.05, **<0.01, ***<0.001.
All solutions were adjusted to pH 7.4. A supramaximal concentration of caerulein (10 nM) was added for 30 minutes as indicated after which media were analyzed for release of trypsin, IL-1β and LDH. (*P<0.05, **P<0.01, ***P<0.001).
Mitochondrial membrane potential was measured in isolated pancreatic acini using tetramethylrhodamine ethyl ester (TMRE) fluorescence.
Specifically, isolated pancreatic acini were loaded with the mitochondrial fluorescent dye TMRE and incubated in phosphate-free buffer with a supramaximal concentration of caerulein (10 nM). TMRE fluorescence and intracellular ATP levels were measure after 30 minutes. *P<0.05, ****P<0.0001.
Isolated pancreatic acini loaded with TMRE were incubated in buffer with 0 or 5 mM phosphate (left panel). Effects of increasing phosphate concentrations on ATP production are shown in the right panel. *P<0.05, **P<0.01, ****P<0.0001. These findings illustrate the requirement for Pi in maintaining and restoring mitochondrial function and ATP synthesis under the stress of caerulein hyperstimulation.

[2] = tested on: pressure-induced pancreatitis; test: ERCP pressure-induced pancreatitis, nicotinic agonists; format: in vivo
Text: GTS-21 (DMXBA) is a derivative of the natural product anabaseine that acts as a partial agonist at neural nicotinic acetylcholine receptors. GTS-21 is 3-2,4-dimethoxybenzylidene anabaseine.

[3] = tested on: ethanol-induced pancreatitis in mice
Text: These findings raise the question of whether phosphate deficiency contributes to the progression of pancreatitis. This may be particularly relevant to alcohol-induced pancreatitis, given that alcoholic patients are susceptible to hypophosphatemia due to nutritional deficiencies and the effects of alcohol ingestion on phosphate absorption. Therefore, it was hypothesized that low phosphate levels may be predispose to alcohol-induced pancreatic injury. To test this hypothesis, we placed mice on a low phosphate diet and determined their susceptibility to ethanol. Animals were placed on a chow diet containing low amounts of phosphate (Pi) for three weeks. The low phosphate diet (Envigo #TD.140659) was comprised of 0.02% Pi compared to normal chow diet which contained 1% Pi. Serum levels of phosphate declined in mice on a low phosphate diet from normal values of 2.2 mM to 1.4 mM (FIG. 12). In order to determine if the diet rendered mice more sensitive to ethanol, mice were administered ethanol by orogastric gavage at […] (30% ethanol at 10 mL/kg) daily for five days (Control mice were gavaged with water). Mice were euthanized 12 hours after the last dose of ethanol. The pancreatitis severity scoring system is a composite of edema, necrosis, inflammatory cell infiltration and hemorrhage severity as previously published. […]

[4] = tested on: pancreatic acini from C57BL/6J mice; format: cell-based; conditions: 50 mM ethanol
Method: In order to determine the effect of ethanol exposure and phosphate levels on acinar cell function, studies were conducted in vitro. Pancreata was harvested from ND-fed and LPD-fed C57BL/6J mice and isolated acinar cells using phosphate-free buffer solutions. Acinar cell function was assessed at various concentrations of ethanol (0-50 mM).
Next, it was investigated as to whether phosphate supplementation could preserve pancreatic acinar cell function. Pancreatic acini from LPD-fed mice were isolated in phosphate-free buffer and treated with 50 mM ethanol and 0-5 mM Na2HPO4.
To further explore the mechanism underlying the effect of phosphate on ethanol-induced acinar cell dysfunction, cellular ATP content and mitochondrial function was investigated.
In order to determine if phosphate sensitizes mitochondria to the effects of alcohol, we measured TMRE fluorescence intensity, a measure of mitochondrial membrane potential that indicates normal mitochondrial function.
Pancreatic acini from LPD-fed mice were again isolated in phosphate-free buffer and treated with 50 mM ethanol and 0-5 mM Na2HPO4.

[5] = tested on: ERCP pancreatitis in mice; test: ERCP pancreatitis mouse model (retrograde pancreatic duct infusion); format: in vivo; conditions: mice on low phosphate diet; 200 μg/g intraperitoneal 1 and 4 hours after induction; 24 hours
Text: For this study, a mouse model of this form of pancreatitis was employed.

caerulein-treated mice = test: Caerulein-induced pancreatitis in mice; format: in vivo; conditions: 250 μg/g Na2HPO4 1 hour after first of 6 hourly caerulein injections (50 ng/g); vs normal saline
Text: Caerulein-induced pancreatitis in mice is an established model of acute experimental pancreatitis. Hyperstimulation of the pancreas by cholecystokinin or its analogue caerulein is a commonly used model of experimental acute pancreatitis in rodents. Caerulein produces mild to moderate, non-fatal pancreatitis that resolves spontaneously.
As shown in FIGS. 3A-3C, phosphate supplementation reduced all parameters of pancreatitis following caerulein administration including serum amylase levels (FIG. 3A), pancreatic MPO levels (FIG. 3B) and pancreatic histology (FIG. 3C). Specifically, mice (C56BL/6 adult mice) were treated with 6 hourly injections of caerulein sulfate (50 ng/g) by intraperitoneal injection. Sodium phosphate (250 μg/g Na2HPO4) and normal saline (NS) were given 1 hour after the first injection. The study was terminated 1 hour after the last caerulein injection at which time, blood and pancreas tissue are collected for measurements of serum amylase, and pancreatic edema, MPO, and histological pancreatitis severity. Pancreatic myeloperoxidase (MPO) and serum amylase levels were measured by commercially available assays. **P<0.01 vs. normal saline in caerulein-treated mice.

[6] = caerulein 10 nM, phosphate-free buffer, 30 minutes
[7] = LPD-derived acini, phosphate-free buffer
[8] = ERCP pressure-induced pancreatic inflammation

Clc1cccc(Cl)c1CSc1nnc(-c2cnccn2)s1 [Yoda1]
LDH release (Piezol; Yoda1 25 μM): increased
[Ca2+]i (Piezol; Yoda1 25 μM): caused an elevation

O=P([O-])(O)O.[Na+] [NaH2PO4]
caerulein-induced damage (release of trypsin, IL-1β and LDH) [1]: protects
mitochondrial function (TMRE fluorescence) ([1]; caerulein hyperstimulation, 0 or 5 mM phosphate): dose-dependently restored
ATP synthesis ([1]; caerulein hyperstimulation, increasing phosphate concentrations): dose-dependently restored

caerulein
ATP production [1, 6]: reduced ATP production
mitochondrial membrane potential (TMRE fluorescence) [1, 6]: caused mitochondrial depolarization

COc1ccc(/C=C2\CCCN=C2c2cccnc2)c(OC)c1 [GTS-21, 3-2,4-dimethoxybenzylidene anabaseine]
protection of the pancreas against pressure-induced pancreatitis ([2]; prior splenectomy): abolished
protection against pressure-induced acute pancreatitis ([2]; splenocytes depleted of T cells): do not protect
protection of the pancreas against pressure-induced pancreatitis ([2]; systemic administration): significantly protected

phosphate
caerulein-induced damage (release of trypsin, IL-1β and LDH) [1]: improved
ethanol-induced injury ([3]; mice on low phosphate diet, sodium phosphate 50 mg/kg gavage daily for 5 days): protects
Yoda1-stimulated LDH release (Piezol; phosphate supplementation): reduced
Yoda1-stimulated elevations in [Ca2+]i (Piezol; phosphate supplementation): reduced

CCO [ethanol]
TMRE fluorescence intensity ([4]; LPD acini): significantly decreased
total cellular ATP levels ([4]; LPD-derived acini): significantly decreased
Lactate dehydrogenase (LDH) [4, 7]: significantly increased
trypsin activity [4, 7]: significantly increased
total cellular ATP levels ([4]; ND-derived acini): not observed
LDH and trypsin activity ([4]; acini from mice on normal diet (ND)): not seen

O=P(O)(O)O [sodium phosphate]
pancreatic injury (survival, pancreatic edema) [5]: protected
mortality of ethanol-treated mice on the low phosphate diet ([3]; sodium phosphate 50 mg/kg orogastric gavage daily for 5 days, ethanol 3 mg/kg daily for 5 days): significantly reduced

CN1CCCC1c1cccnc1 (centres unmarked) [nicotine]
histopathology [2, 8]: dose-dependently inhibits
pancreatic MPO levels [2, 8]: dose-dependently inhibits
pancreatic edema [2, 8]: dose-dependently inhibits
serum amylase [2, 8]: dose-dependently inhibits

O=P([O-])([O-])O.[Na+].[Na+] [Na2HPO4]
pancreatic MPO levels (caerulein-treated mice): reduced
pancreatic histology (caerulein-treated mice): reduced
serum amylase levels (caerulein-treated mice): reduced
caerulein-induced LDH release ([1]; buffer containing Na2HPO4 1-10 mM): reduced
cytosolic ATP levels ([1]; caerulein-treated acini, Na2HPO4 1-10 mM): restored ATP levels in a dose-dependent fashion
ATP levels ([4]; LPD acini, 0-5 mM Na2HPO4): significantly increased
TMRE fluorescence intensity ([4]; LPD acini, 0-5 mM Na2HPO4): markedly improved
LDH ([4]; LPD acini, 5 mM Na2HPO4): significantly decreased
trypsin activity ([4]; LPD acini, 5 mM Na2HPO4): significantly decreased
